Source: article doi:10.1101/2020.07.20.212142v1 (bioRxiv, 2020)

Assays:
NIH 3T3 cells = assay: NIH 3T3 peptide permeation by live-cell confocal microscopy; type: cell-based, mouse; settings: live NIH 3T3 cells; 5 µM TAMRA-labeled peptide, Opti-mem + 2% FBS, 3 hours, 37°C
[1] = system: dechorionated Drosophila melanogaster hosts; type: in vivo; settings: dechorionated-only hosts; 20 µM peptide overnight, room temperature

permeation by confocal fluorescence microscopy (NIH 3T3 cells) | Substance | partial loss of viability observed (in words) [1]
substantially greater permeation | cyclo[Glut-MRKRHASRRE-K*]-K(5-TAMRA) (sidechain bridge or staple) | –
spare punctuate fluorescence | TAMRA-RRRRRRRRR | sole exception
no permeation was detected | TAMRA-GEGEGEG | –
spare punctuate fluorescence | TAMRA-MRKRHASRREK | –
